# In US20260241046A1, “PROSTATE-SPECIFIC MEMBRANE ANTIGEN RECEPTOR-TARGETING RADIOPHARMACEUTICALS AND USES THEREOF” (Nuclidium AG, priority 2024, published 2026):
# “And” between values parts separate entries of the source, which are not always exact repeats. Identical values can stand only once.
# What was measured:
# [1] = test system: LNCaP xenografted mice; assay: Biodistribution studies in LNCaP xenografted mice; format: in vivo
# Procedure: Unless otherwise specified, the in vivo studies were performed on athymic nude Foxn1^nu 4-6-week-old mice. Animals were injected in the shoulder with LNCaP cells (10^7 cells/200 μL) suspended in 1:1 (v: v) EMEM EBS medium and Matrigel. The in vivo experiments were performed when tumors reached a volume between 100-500 mm^3. At the intervention, all mice were between 7 and 11 weeks old. All animal experiments were performed following the guidelines for the use of living animals in scientific studies and the Swiss regulations for the protection of animals.
# Quantitative biodistribution studies were performed on LNCaP xenografted mice to determine the distribution of [^61Cu]Cu-NODAGA-PSMA I&T following i.v. injection into the tail vein. The dose of the administered radiopharmaceutical was between 1.5-3.5 MBq ([…]) diluted to 100 μL with saline solution. The mice were divided into two groups of eight (5 males and 3 females) and euthanized at 1- and 4-hours post-injection. The organs of interest were then collected, rinsed, blotted, weighed, and analyzed in a gamma counter. The results were expressed as the percentage of injected activity per gram of tissue (% IA/g) and reported as mean±standard deviation in Table 25.
# [2] = Dosimetry calculations (OLINDA/EXM 1.0, extrapolated human dose)
# Source text: The data from the pharmacokinetic studies (Table 26) was decay-corrected using the half-life of ^61Cu to extrapolate the human dose. Since there were no measurements of the radioactivity accumulation in red marrow, this was estimated assuming a linear relationship between the blood and the red marrow residence times. The proportionality factor used was the ratio between the red marrow mass and human blood mass. The residence time (RT) for the stomach was approximated to be equal to the RT of the stomach wall since the animals were subjected to fasting before the biodistribution experiments. The heart was emptied from blood before measurements, and it was assumed that the total measured heart uptake was associated with the heart wall.
# OLINDA/EXM 1.0 was used to integrate the fitted time-activity curves and to estimate the organ and effective doses using standard human whole-body adult female and male phantom models. Since the salivary glands are PSMA-positive and the organ is not included in the phantom, the dose absorbed was calculated separately, assuming that the weight of the human salivary gland is 30 g.
compound,measurement,setting,value
O=C([O-])CN1CCN(CC(=O)[O-])CCN([C@H](CCC(=O)N[C@H](Cc2ccc(O)c(I)c2)C(=O)N[C@H](Cc2ccccc2)C(=O)N[C@H](CCCCNC(=O)CCCCCCC(=O)NCCCC[C@H](NC(=O)N[C@@H](CCC(=O)O)C(=O)O)C(=O)O)C(=O)O)C(=O)O)CC1.[61Cu+2] [[^61Cu]Cu-NODAGA-PSMA I&T],"Biodistribution, Adrenal",[1]; 1 hour post-injection,17.3±3.26 % IA/g
same,"Biodistribution, Blood",[1]; 1 hour post-injection,0.28 ± 0.06 % IA/g
same,"Biodistribution, Bone",[1]; 1 hour post-injection,2.73 ± 0.91 % IA/g
same,"Biodistribution, Heart",[1]; 1 hour post-injection,0.45 ± 0.15 % IA/g
same,"Biodistribution, Intestine",[1]; 1 hour post-injection,2.11 ± 0.78 % IA/g
same,"Biodistribution, Kidneys",[1]; 1 hour post-injection,118±13 % IA/g
same,"Biodistribution, LNCaP-tumor",[1]; 1 hour post-injection,14.0±5.0 % IA/g
same,"Biodistribution, Liver",[1]; 1 hour post-injection,1.02 ± 0.28 % IA/g
same,"Biodistribution, Lung",[1]; 1 hour post-injection,1.69 ± 0.45 % IA/g
same,"Biodistribution, Muscle",[1]; 1 hour post-injection,1.12 ± 0.32 % IA/g
same,"Biodistribution, Pancreas",[1]; 1 hour post-injection,0.97 ± 0.36 % IA/g
same,"Biodistribution, Salivary glands",[1]; 1 hour post-injection,2.01±0.33 % IA/g
same,"Biodistribution, Spleen",[1]; 1 hour post-injection,6.04±1.87 % IA/g
same,"Biodistribution, Stomach",[1]; 1 hour post-injection,1.13 ± 0.20 % IA/g
same,Tumor/Blood uptake ratio,[1]; 1 hour post-injection,50
same,Tumor/Kidney uptake ratio,[1]; 1 hour post-injection,0.12
same,Tumor/Liver uptake ratio,[1]; 1 hour post-injection,14
same,Tumor/Muscles uptake ratio,[1]; 1 hour post-injection,13
same,Tumor/Salivary gland uptake ratio,[1]; 1 hour post-injection,7
same,"Biodistribution, Adrenal",[1]; 4 hours post-injection,8.32±2.87 % IA/g
same,"Biodistribution, Blood",[1]; 4 hours post-injection,0.10±0.03 % IA/g
same,"Biodistribution, Bone",[1]; 4 hours post-injection,1.34 ± 0.48 % IA/g
same,"Biodistribution, Heart",[1]; 4 hours post-injection,0.22 ± 0.05 % IA/g
same,"Biodistribution, Intestine",[1]; 4 hours post-injection,1.06 ± 0.50 % IA/g
same,"Biodistribution, Kidneys",[1]; 4 hours post-injection,91±10 % IA/g
same,"Biodistribution, LNCaP-tumor",[1]; 4 hours post-injection,10.7±3.3 % IA/g
same,"Biodistribution, Liver",[1]; 4 hours post-injection,0.72 ± 0.11 % IA/g
same,"Biodistribution, Lung",[1]; 4 hours post-injection,0.74 ± 0.19 % IA/g
same,"Biodistribution, Muscle",[1]; 4 hours post-injection,0.50 ± 0.22 % IA/g
same,"Biodistribution, Pancreas",[1]; 4 hours post-injection,0.45 ± 0.09 % IA/g
same,"Biodistribution, Salivary glands",[1]; 4 hours post-injection,0.52±0.06 % IA/g
same,"Biodistribution, Spleen",[1]; 4 hours post-injection,1.28 ± 0.39 % IA/g
same,"Biodistribution, Stomach",[1]; 4 hours post-injection,0.66 ± 0.15 % IA/g
same,Tumor/Blood uptake ratio,[1]; 4 hours post-injection,107
same,Tumor/Kidney uptake ratio,[1]; 4 hours post-injection,0.12
same,Tumor/Liver uptake ratio,[1]; 4 hours post-injection,15
same,Tumor/Muscles uptake ratio,[1]; 4 hours post-injection,21
same,Tumor/Salivary gland uptake ratio,[1]; 4 hours post-injection,21
same,Effective Dose,[2]; Female,0.0095 mSv/MBq and 9.54E−03 mSv/MBq
same,"Total absorbed dose, Adrenals",[2]; Female,9.86E−02 mGy/MBq
same,"Total absorbed dose, Brain",[2]; Female,5.59E−05 mGy/MBq
same,"Total absorbed dose, Breasts",[2]; Female,1.23E−03 mGy/MBq
same,"Total absorbed dose, Gallbladder Wall",[2]; Female,1.37E−02 mGy/MBq
same,"Total absorbed dose, Heart Wall",[2]; Female,5.03E−03 mGy/MBq
same,"Total absorbed dose, Kidneys",[2]; Female,1.00E+00 mGy/MBq
same,"Total absorbed dose, LLI Wall",[2]; Female,3.24E−03 mGy/MBq
same,"Total absorbed dose, Liver",[2]; Female,1.83E−02 mGy/MBq
same,"Total absorbed dose, Lungs",[2]; Female,4.86E−03 mGy/MBq
same,"Total absorbed dose, Muscle",[2]; Female,4.03E−03 mGy/MBq
same,"Total absorbed dose, Osteogenic Cells",[2]; Female,3.93E−03 mGy/MBq
same,"Total absorbed dose, Ovaries",[2]; Female,4.76E−03 mGy/MBq
same,"Total absorbed dose, Pancreas",[2]; Female,3.18E−02 mGy/MBq
same,"Total absorbed dose, Red Marrow",[2]; Female,6.94E−03 mGy/MBq
same,"Total absorbed dose, Skin",[2]; Female,1.82E−03 mGy/MBq
same,"Total absorbed dose, Small Intestine",[2]; Female,2.78E−02 mGy/MBq
same,"Total absorbed dose, Spleen",[2]; Female,5.65E−02 mGy/MBq
same,"Total absorbed dose, Stomach Wall",[2]; Female,1.08E−02 mGy/MBq
same,"Total absorbed dose, Thymus",[2]; Female,1.11E−03 mGy/MBq
same,"Total absorbed dose, Thyroid",[2]; Female,2.72E−04 mGy/MBq
same,"Total absorbed dose, Total Body",[2]; Female,9.46E−03 mGy/MBq
same,"Total absorbed dose, ULI Wall",[2]; Female,9.78E−03 mGy/MBq
same,"Total absorbed dose, Urinary Bladder Wall",[2]; Female,1.60E−03 mGy/MBq
same,"Total absorbed dose, Uterus",[2]; Female,3.94E−03 mGy/MBq
same,Effective Dose,[2]; Male,0.0142 mSv/MBq and 1.42E−02 mSv/MBq
same,"Total absorbed dose, Adrenals",[2]; Male,8.39E−02 mGy/MBq
same,"Total absorbed dose, Brain",[2]; Male,6.18E−05 mGy/MBq
same,"Total absorbed dose, Gallbladder Wall",[2]; Male,2.30E−02 mGy/MBq
same,"Total absorbed dose, Heart Wall",[2]; Male,6.94E−03 mGy/MBq
same,"Total absorbed dose, Kidneys",[2]; Male,1.74E+00 mGy/MBq
same,"Total absorbed dose, LLI Wall",[2]; Male,4.64E−03 mGy/MBq
same,"Total absorbed dose, Liver",[2]; Male,2.51E−02 mGy/MBq
same,"Total absorbed dose, Lungs",[2]; Male,6.11E−03 mGy/MBq
same,"Total absorbed dose, Muscle",[2]; Male,6.00E−03 mGy/MBq
same,"Total absorbed dose, Osteogenic Cells",[2]; Male,5.31E−03 mGy/MBq
same,"Total absorbed dose, Pancreas",[2]; Male,4.83E−02 mGy/MBq
same,"Total absorbed dose, Red Marrow",[2]; Male,1.11E−02 mGy/MBq
same,"Total absorbed dose, Skin",[2]; Male,2.90E−03 mGy/MBq
same,"Total absorbed dose, Small Intestine",[2]; Male,3.79E−02 mGy/MBq
same,"Total absorbed dose, Spleen",[2]; Male,7.37E−02 mGy/MBq
same,"Total absorbed dose, Stomach Wall",[2]; Male,1.71E−02 mGy/MBq
same,"Total absorbed dose, Testes",[2]; Male,5.39E−04 mGy/MBq
same,"Total absorbed dose, Thymus",[2]; Male,1.67E−03 mGy/MBq
same,"Total absorbed dose, Thyroid",[2]; Male,4.99E−04 mGy/MBq
same,"Total absorbed dose, Total Body",[2]; Male,1.38E−02 mGy/MBq
same,"Total absorbed dose, ULI Wall",[2]; Male,1.43E−02 mGy/MBq
same,"Total absorbed dose, Urinary Bladder Wall",[2]; Male,2.06E−03 mGy/MBq
same,absorbed dose in the kidneys,[2]; after injecting 100-150 MBq,0.17-0.26 Gy
